What was measured:
[1] = Solubility in solvent (methanol); format: physicochemical
[2] = system: antioxidant responsive element transcription activity (pGL3-GSTYaARE-Luciferase) in ARPE-19 cells; assay: Antioxidant responsive element luciferase reporter assay in ARPE-19 cells; format: cell-based; settings: for antioxidant effect: conclusion from luciferase activity vs control, FIG. 1; for antioxidant effect in comparison with trehangelin A: ARE luciferase reporter, comparison with known substance trehangelin A
Experimental: The physiological functions of the compounds obtained above were evaluated. The evaluation of the physiological functions was carried out by using the tool described in Carnosic acid, a catechol-type electrophilic compound, protects neurons both in vitro and in vivo through activation of the Keap1/Nrf2 pathway via S-alkylation of targeted cysteines on Keap1. Takumi Satoh et al., Journal of Neurochemistry. Vol. 104, pp. 1116-1131, (2008).
Briefly, ARPE-19 cells were seeded in 24-well plates using a 10% FBS-DMEM/F12 medium (manufactured by GIBCO) so as to be 50% confluent. After 24 hours, (1) a mixed solution (vector solution) of 0.5 μg of pGL3-GSTYaARE-Luciferase vector, 0.5 μg of pSV-betaGAL vector, and 50 μL of Opti-MEM I (manufactured by GIBCO) per well and (2) a mixed solution (lipofectamine 2000) of 2 μL of lipofectamine 2000 (manufactured by Thermo Fisher) and 50 μL of Opti-MEM I (manufactured by GIBCO) per well were prepared and left at room temperature for 5 minutes. The vector solution and the lipofectamine 2000 solution were mixed and left at room temperature for 20 minutes. The resulting mixed solution was added to cultured cells (ARPE-19 cells) (100 μL per well) and cultured in a CO2 incubator for 6 hours. Subsequently, the culture medium was replaced with a new 10% FBS-DMEM/F12 medium (0.5 mL/well), followed by culturing for 18 hours. The culture medium was then replaced with a new 10% FBS-DMEM/F12 medium (0.3 mL/well) or a 10% FBS-DMEM/F12 medium (0.3 mL/well) containing […] of various trehangelin derivatives, followed by culturing for 24 hours. After the medium was removed, 150 μL of PassiveLysisBuffer (manufactured by Promega) was added to prepare a cell lysis solution.
100 μL of each cell lysis solution was placed on a 96-well plate, and 100 μL of β-GAL assay kit solution (manufactured by Promega) was added, followed by incubation at 37° C. for 3 hours. Then, β-GAL activity was confirmed by measuring the absorbance at 405 nm.
20 μL of each cell lysis solution was placed in a 96-well plate which differs from the above 96-well plate, and 100 μL of each luciferase assay kit solution (manufactured by Promega) was added. Then, luciferase activity was measured by measuring the luminescence. The obtained result on the luciferase activity was corrected by dividing them by the result on the β-GAL activity, and the antioxidant responsive element transcription activity was calculated.

| SMILES | Solubility in solvent [1] | antioxidant effect [2] | antioxidant effect in comparison with trehangelin A [2] |
| --- | --- | --- | --- |
| C/C=C(/C)C(=O)OC1C(O)C(CO)OC(OC2OC(CO)C(O)C(OC(C)=O)C2O)C1O (centres unmarked) [3-O-acetyl-3′-O-angeloyltrehalose] | Poorly soluble in methanol | have an antioxidant effect | – |
| C/C=C(/C)C(=O)OC1C(O)C(CO)OC(OC2OC(CO)C(O)C(OC(=O)/C(C)=C\CC)C2O)C1O (centres unmarked) [3-O-(2-methyl-2-butenoyl)-3′-O-(2-methyl-2-pentenoyl)trehalose] | Poorly soluble in methanol | have an antioxidant effect | higher antioxidant effect than trehangelin A |
| C/C=C\C(=O)OC1C(O)C(CO)OC(OC2OC(CO)C(O)C(OC(=O)/C(C)=C\C)C2O)C1O (centres unmarked) [3-O-angeloyl-3′-O-isocrotonyltrehalose] | Poorly soluble in methanol | have an antioxidant effect | higher antioxidant effect than trehangelin A |
| C/C=C(/C)C(=O)OC1C(O)C(CO)OC(OC2OC(CO)C(O)C(O)C2O)C1O (centres unmarked) [3-O-angeloyltrehalose] | Poorly soluble in methanol | have an antioxidant effect | almost the same level of antioxidant effect as that of trehangelin A |
